Data as given in PubChem BioAssay (NCI).
Several values for one entry are separate records, joined by “and”; a condition that tells them apart may be missing. Equal values may be shown once.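 Growth conditions: 96-well plates. Treatment: test compound, 48 hours, 5 concentrations. Analysis: linear interpolation between bracketing concentrations; unreached endpoints set to highest concentration. The concentration for 50% growth inhibition is given as GI50. The concentration for full growth arrest is given as TGI.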

Assays:
Assay in all cases: growth of human tumour cells (NCI), 48 h
HS 578T breast = system: HS 578T breast
SK-MEL-28 melanoma = system: SK-MEL-28 melanoma
SNB-75 CNS = system: SNB-75 CNS
PC-3 prostate = system: PC-3 prostate
HCT-15 colon = system: HCT-15 colon
HOP-62 NSCLC = system: HOP-62 NSCLC
OVCAR-4 ovarian = system: OVCAR-4 ovarian
TK-10 renal = system: TK-10 renal
OVCAR-3 ovarian = system: OVCAR-3 ovarian
SR leukemia = system: SR leukemia
SN12C renal = system: SN12C renal
NCI-H522 lung = system: NCI-H522 lung
HCT-116 colon = system: HCT-116 colon
RXF 393 renal = system: RXF 393 renal
CAKI-1 renal = system: CAKI-1 renal
SK-MEL-5 melanoma = system: SK-MEL-5 melanoma
MALME-3M melanoma = system: MALME-3M melanoma
NCI-H226 lung = system: NCI-H226 lung
K-562 leukemia = system: K-562 leukemia
MDA-MB-468 breast = system: MDA-MB-468 breast
A549 NSCLC = system: A549 NSCLC
NCI/ADR-RES ovarian = system: NCI/ADR-RES ovarian
HL-60(TB) leukemia = system: HL-60(TB) leukemia
SF-268 CNS = system: SF-268 CNS
KM12 colon = system: KM12 colon
T-47D breast = system: T-47D breast
NCI-H460 lung = system: NCI-H460 lung
MOLT-4 leukemia = system: MOLT-4 leukemia
HOP-92 NSCLC = system: HOP-92 NSCLC
RPMI-8226 leukemia = system: RPMI-8226 leukemia
NCI-H23 lung = system: NCI-H23 lung
MDA-MB-231 breast = system: MDA-MB-231 breast
CCRF-CEM leukemia = system: CCRF-CEM leukemia
OVCAR-5 ovarian = system: OVCAR-5 ovarian
ACHN renal = system: ACHN renal
A498 renal = system: A498 renal
SF-539 CNS = system: SF-539 CNS
M14 melanoma = system: M14 melanoma
SNB-19 CNS = system: SNB-19 CNS
786-0 renal = system: 786-0 renal
SW-620 colon = system: SW-620 colon
COLO 205 colon = system: COLO 205 colon
UACC-257 melanoma = system: UACC-257 melanoma
UACC-62 melanoma = system: UACC-62 melanoma
SF-295 CNS = system: SF-295 CNS
HT29 colon = system: HT29 colon
DU-145 prostate = system: DU-145 prostate
U251 CNS = system: U251 CNS
IGROV1 ovarian = system: IGROV1 ovarian
SK-OV-3 ovarian = system: SK-OV-3 ovarian
EKVX NSCLC = system: EKVX NSCLC
BT-549 breast = system: BT-549 breast
MDA-MB-435 = system: MDA-MB-435
HCC-2998 colon = system: HCC-2998 colon
UO-31 renal = system: UO-31 renal
LOX IMVI melanoma = system: LOX IMVI melanoma
SK-MEL-2 melanoma = system: SK-MEL-2 melanoma

Work on CC1=C(CCC=NNC(N)=O)C2=C(C)C3(CC3)[C@@](C)(O)C(=O)C2=C1 yielded a GI50 (HS 578T breast) of 249 nM, a TGI (HS 578T breast) of 1070 nM and a GI50 (SK-MEL-28 melanoma) of 187 nM. It also gave a TGI (SK-MEL-28 melanoma) of 369 nM, a GI50 (SNB-75 CNS) of 72.5 nM and a TGI (SNB-75 CNS) of 226 nM. It also gave a GI50 (PC-3 prostate) of 175 nM, a TGI (PC-3 prostate) of 1960 nM and a GI50 (HCT-15 colon) of 122 nM. It also gave a TGI (HCT-15 colon) of 616 nM, a GI50 (HOP-62 NSCLC) of 74.4 nM and a TGI (HOP-62 NSCLC) of 802 nM. For the same compound, the GI50 (OVCAR-4 ovarian) was 172 nM, the TGI (OVCAR-4 ovarian) was 574 nM and the GI50 (TK-10 renal) was 278 nM. It also gave a TGI (TK-10 renal) of 1260 nM, a GI50 (OVCAR-3 ovarian) of 132 nM and a TGI (OVCAR-3 ovarian) of 828 nM. It also gave a GI50 (SR leukemia) of 1820 nM, a TGI (SR leukemia) of over 100000 nM and a GI50 (SN12C renal) of 92.3 nM. For the same compound, the TGI (SN12C renal) was 654 nM, the GI50 (NCI-H522 lung) was 165 nM and the TGI (NCI-H522 lung) was 414 nM. It also gave a GI50 (HCT-116 colon) of 142 nM, a TGI (HCT-116 colon) of 1400 nM and a GI50 (RXF 393 renal) of 19.4 nM. For the same compound, the TGI (RXF 393 renal) was 41.8 nM, the GI50 (CAKI-1 renal) was 133 nM and the TGI (CAKI-1 renal) was 1110 nM. For the same compound, the GI50 (SK-MEL-5 melanoma) was 94 nM, the TGI (SK-MEL-5 melanoma) was 248 nM and the GI50 (MALME-3M melanoma) was 82.2 nM. For the same compound, the TGI (MALME-3M melanoma) was 218 nM, the GI50 (NCI-H226 lung) was 200 nM and the TGI (NCI-H226 lung) was 646 nM. The GI50 (K-562 leukemia) was 2320 nM, the TGI (K-562 leukemia) was over 37900 nM and the GI50 (MDA-MB-468 breast) was 187 nM and 31.6 nM. For the same compound, the TGI (MDA-MB-468 breast) was 691 nM and 95.3 nM, the GI50 (A549 NSCLC) was 122 nM and the TGI (A549 NSCLC) was 2160 nM. For the same compound, the GI50 (NCI/ADR-RES ovarian) was 104 nM, the TGI (NCI/ADR-RES ovarian) was 407 nM and the GI50 (HL-60(TB) leukemia) was 56.8 nM. For the same compound, the GI50 (SF-268 CNS) was 34.3 nM, the TGI (SF-268 CNS) was 423 nM and the GI50 (KM12 colon) was 506 nM. The TGI (KM12 colon) was 7670 nM, the GI50 (T-47D breast) was 86.2 nM and the TGI (T-47D breast) was 2740 nM. For the same compound, the GI50 (NCI-H460 lung) was 24.3 nM, the TGI (NCI-H460 lung) was 218 nM and the GI50 (MOLT-4 leukemia) was 1180 nM. The TGI (MOLT-4 leukemia) was over 41500 nM, the GI50 (HOP-92 NSCLC) was 34.6 nM and the TGI (HOP-92 NSCLC) was 180 nM. The GI50 (RPMI-8226 leukemia) was 3020 nM, the TGI (RPMI-8226 leukemia) was over 35200 nM and the GI50 (NCI-H23 lung) was 17.2 nM. It also gave a TGI (NCI-H23 lung) of 45 nM, a GI50 (MDA-MB-231 breast) of 142 nM and a TGI (MDA-MB-231 breast) of 435 nM. For the same compound, the GI50 (CCRF-CEM leukemia) was 2360 nM, the TGI (CCRF-CEM leukemia) was over 35200 nM and the GI50 (OVCAR-5 ovarian) was 45.1 nM. It also gave a TGI (OVCAR-5 ovarian) of 364 nM, a GI50 (ACHN renal) of 68.7 nM and a TGI (ACHN renal) of 344 nM. For the same compound, the GI50 (A498 renal) was 208 nM, the TGI (A498 renal) was 511 nM and the GI50 (SF-539 CNS) was 32 nM. For the same compound, the TGI (SF-539 CNS) was 128 nM, the GI50 (M14 melanoma) was 74.5 nM and the TGI (M14 melanoma) was 253 nM. It also gave a GI50 (SNB-19 CNS) of 225 nM, a TGI (SNB-19 CNS) of 894 nM and a GI50 (786-0 renal) of 113 nM. For the same compound, the TGI (786-0 renal) was 428 nM, the GI50 (SW-620 colon) was 1440 nM and the TGI (SW-620 colon) was 3740 nM. For the same compound, the GI50 (COLO 205 colon) was 152 nM, the TGI (COLO 205 colon) was 314 nM and the GI50 (UACC-257 melanoma) was 190 nM. For the same compound, the TGI (UACC-257 melanoma) was 427 nM, the GI50 (UACC-62 melanoma) was 142 nM and the TGI (UACC-62 melanoma) was 292 nM. It also gave a GI50 (SF-295 CNS) of 89.3 nM, a TGI (SF-295 CNS) of 1210 nM and a GI50 (HT29 colon) of 170 nM. For the same compound, the TGI (HT29 colon) was 740 nM, the GI50 (DU-145 prostate) was 34.7 nM and the TGI (DU-145 prostate) was 1200 nM. For the same compound, the GI50 (U251 CNS) was 210 nM, the TGI (U251 CNS) was 936 nM and the GI50 (IGROV1 ovarian) was 35.6 nM. It also gave a TGI (IGROV1 ovarian) of 161 nM, a GI50 (SK-OV-3 ovarian) of 42.2 nM and a TGI (SK-OV-3 ovarian) of 334 nM. It also gave a GI50 (EKVX NSCLC) of 177 nM, a TGI (EKVX NSCLC) of 526 nM and a GI50 (BT-549 breast) of 60.5 nM. For the same compound, the TGI (BT-549 breast) was 212 nM, the GI50 (MDA-MB-435) was 267 nM and the TGI (MDA-MB-435) was 941 nM. For the same compound, the GI50 (HCC-2998 colon) was 94.1 nM, the TGI (HCC-2998 colon) was 259 nM and the GI50 (UO-31 renal) was 71.2 nM. The TGI (UO-31 renal) was 277 nM, the GI50 (LOX IMVI melanoma) was 149 nM and the TGI (LOX IMVI melanoma) was 410 nM. For the same compound, the GI50 (SK-MEL-2 melanoma) was 193 nM and the TGI (SK-MEL-2 melanoma) was 362 nM.
